According to ChEMBL document CHEMBL1130004, “Bioactivities and secondary structures of constrained analogues of human parathyroid hormone: cyclic lactams of the receptor binding region” (J Med Chem, 1997):
Positions of bridges follow the written chain, without caps; N, C: chain ends. Residues, ends and D or L forms follow the SMILES beside them.

Species: Rattus norvegicus
Experiment: Adenylyl cyclase stimulating activity expressed as effective dose was measured in rat osteosarcoma 17/2 cells
Assay type: functional, cell-based

Molecule	EC50 [nM]
CC[C@H](C)[C@H](NC(=O)[C@H](CCC(=O)O)NC(=O)[C@H](CO)NC(=O)[C@@H](NC(=O)[C@@H](N)CO)C(C)C)C(=O)N[C@@H](CCC(N)=O)C(=O)N[C@@H](CC(C)C)C(=O)N[C@@H](CCSC)C(=O)N[C@@H](Cc1c[nH]cn1)C(=O)N[C@@H](CC(N)=O)C(=O)N[C@@H](CC(C)C)C(=O)NCC(=O)N[C@@H](CCCCN)C(=O)N[C@@H](Cc1c[nH]cn1)C(=O)N[C@@H](CC(C)C)C(=O)N[C@@H](CC(N)=O)C(=O)N[C@@H](CO)C(=O)N[C@@H](CCSC)C(=O)N[C@@H](CCC(=O)O)C(=O)N[C@@H](CCCN=C(N)N)C(=O)N[C@H](C(=O)N[C@@H](CCC(=O)O)C(=O)N[C@@H](Cc1c[nH]c2ccccc12)C(=O)N[C@@H](CC(C)C)C(=O)N[C@@H](CCCN=C(N)N)C(=O)N[C@@H](CCCCN)C(=O)N[C@H]1CCCCNC(=O)C[C@@H](C(=O)N[C@H](C(N)=O)C(C)C)NC(=O)[C@H](CCC(N)=O)NC(=O)[C@H](CC(C)C)NC1=O)C(C)C	40.3
CC[C@H](C)[C@H](NC(=O)[C@H](CCC(=O)O)NC(=O)[C@H](CO)NC(=O)[C@@H](NC(=O)[C@@H](N)CO)C(C)C)C(=O)N[C@@H](CCC(N)=O)C(=O)N[C@@H](CC(C)C)C(=O)N[C@@H](CCSC)C(=O)N[C@@H](Cc1c[nH]cn1)C(=O)N[C@@H](CC(N)=O)C(=O)N[C@@H](CC(C)C)C(=O)NCC(=O)N[C@@H](CCCCN)C(=O)N[C@@H](Cc1c[nH]cn1)C(=O)N[C@@H](CC(C)C)C(=O)N[C@@H](CC(N)=O)C(=O)N[C@@H](CO)C(=O)N[C@@H](CCSC)C(=O)N[C@@H](CCC(=O)O)C(=O)N[C@@H](CCCN=C(N)N)C(=O)N[C@H](C(=O)N[C@H]1CCC(=O)NCCCC[C@@H](C(=O)N[C@@H](CC(C)C)C(=O)N[C@@H](CC(C)C)C(=O)N[C@@H](CCC(N)=O)C(=O)N[C@@H](CC(=O)O)C(N)=O)NC(=O)[C@H](CCCN=C(N)N)NC(=O)[C@H](CC(C)C)NC(=O)[C@H](Cc2c[nH]c3ccccc23)NC1=O)C(C)C (H-SVSEIQLMHNLGKHLNSMERVEWLRKLLQD-NH2; lactam 22-26)	20
H-SVSEIQLMHNLGKHLNSMERVEWLRKKLQD-NH2	20
H-SVSEIQLMHNLGKHLNSMERVEWLRKLLQD-NH2	20

These reach a lower EC50. Values come first.

EC50 [nM]	Molecule
11.5	CC[C@H](C)[C@H](NC(=O)[C@H](CCC(=O)O)NC(=O)[C@H](CO)NC(=O)[C@@H](NC(=O)[C@@H](N)CO)C(C)C)C(=O)N[C@@H](CCC(N)=O)C(=O)N[C@@H](CC(C)C)C(=O)N[C@@H](CCSC)C(=O)N[C@@H](Cc1c[nH]cn1)C(=O)N[C@@H](CC(N)=O)C(=O)N[C@@H](CC(C)C)C(=O)NCC(=O)N[C@@H](CCCCN)C(=O)N[C@@H](Cc1c[nH]cn1)C(=O)N[C@@H](CC(C)C)C(=O)N[C@@H](CC(N)=O)C(=O)N[C@@H](CO)C(=O)N[C@@H](CCSC)C(=O)N[C@@H](CCC(=O)O)C(=O)N[C@@H](CCCN=C(N)N)C(=O)N[C@H](C(=O)N[C@@H](CCC(=O)O)C(=O)N[C@@H](Cc1c[nH]c2ccccc12)C(=O)N[C@@H](CC(C)C)C(=O)N[C@@H](CCCN=C(N)N)C(=O)N[C@@H](CCCCN)C(=O)N[C@@H](CC(C)C)C(=O)N[C@@H](CC(C)C)C(=O)N[C@@H](CCC(N)=O)C(=O)N[C@@H](CC(=O)O)C(=O)N[C@H](C(N)=O)C(C)C)C(C)C
3.3	CC[C@H](C)[C@H](NC(=O)[C@H](CCC(=O)O)NC(=O)[C@H](CO)NC(=O)[C@@H](NC(=O)[C@@H](N)CO)C(C)C)C(=O)N[C@@H](CCC(N)=O)C(=O)N[C@@H](CC(C)C)C(=O)N[C@@H](CCSC)C(=O)N[C@@H](Cc1c[nH]cn1)C(=O)N[C@@H](CC(N)=O)C(=O)N[C@@H](CC(C)C)C(=O)NCC(=O)N[C@@H](CCCCN)C(=O)N[C@@H](Cc1c[nH]cn1)C(=O)N[C@@H](CC(C)C)C(=O)N[C@@H](CC(N)=O)C(=O)N[C@@H](CO)C(=O)N[C@@H](CCSC)C(=O)N[C@@H](CCC(=O)O)C(=O)N[C@@H](CCCN=C(N)N)C(=O)N[C@H](C(=O)N[C@H]1CCC(=O)NCCCC[C@@H](C(=O)N[C@@H](CC(C)C)C(=O)N[C@@H](CC(C)C)C(=O)N[C@@H](CCC(N)=O)C(=O)N[C@@H](CC(=O)O)C(=O)N[C@H](C(N)=O)C(C)C)NC(=O)[C@H](CCCN=C(N)N)NC(=O)[C@H](CC(C)C)NC(=O)[C@H](Cc2c[nH]c3ccccc23)NC1=O)C(C)C (H-SVSEIQLMHNLGKHLNSMERVEWLRKLLQDV-NH2; lactam 22-26)
